Earlier results as cited in patent US20260110003A1 (Solugen, Inc., priority 2022, published 2026).

Assays:
[1] = for Prefers Phase: aqueous (Aq) or organic (Org) phase in the MPER; for LogP: partition coefficient, <0 preference for aqueous, >0 for organic
[2] = relative to VvSucA

Prefers Phase [1] | LogP [1] | Molecule | more acetoin produced than VvSucA [2]
Aq | −0.3 | CC(=O)C(=O)O [Pyruvic Acid] | –
Org | 0.4 | CCOC(=O)C(C)=O [Ethyl Pyruvate] | –
Aq | <<0 | CC(=O)C(=O)O [Pyruvate ion] | –
Both | – | CCO [Ethanol] | –
– | – | ZmPDC: Zymomonas mobilis pyruvate decarboxylase (protein, UniProt P06672 1-568, looked up) Pyruvate decarboxylase: MSYTVGTYLAERLVQIGLKHHFAVAGDYNLVLLDNLLLNKNMEQVYCCNELNCGFSAEGYARAKGAAAAVVTYSVGALSAFDAIGGAYAENLPVILISGAPNNNDHAAGHVLHHALGKTDYHYQLEMAKNITAAAEAIYTPEEAPAKIDHVIKTALREKKPVYLEIACNIASMPCAAPGPASALFNDEASDEASLNAAVEETLKFIANRDKVAVLVGSKLRAAGAEEAAVKFADALGGAVATMAAAKSFFPEENPHYIGTSWGEVSYPGVEKTMKEADAVIALAPVFNDYSTTGWTDIPDPKKLVLAEPRSVVVNGIRFPSVHLKDYLTRLAQKVSKKTGALDFFKSLNAGELKKAAPADPSAPLVNAEIARQVEALLTPNTTVIAETGDSWFNAQRMKLPNGARVEYEMQWGHIGWSVPAAFGYAVGAPERRNILMVGDGSFQLTAQEVAQMVRLKLPVIIFLINNYGYTIEVMIHDGPYNNIKNWDYAGLMEVFNGNGGYDSGAGKGLKAKTGGELAEAIKVALANTDGPTLIECFIGREDCTEELVKWGKRVAAANSRKPVNKLL | 57%

Molecule | Prefers Phase [1] | LogP [1] | more acetoin produced than VvSucA [2]
CC=O [Acetaldehyde] | Aq | −0.34 | –
